Results from the supplement of paper PMC11451515.

Columns and labels:
Conditions in all cases: 48 h
P12-Ichikawa [1] = assay: AUC of viability dose-response curve (% viability x log10 dose units); higher = less sensitive
In short: (§1)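 Leukemia cells adapted to each medium were seeded in 1536-well plates (500 or 1000 cells/well) and given library compounds in DMSO for 48 h at 37°C. The 11 threefold doses spanned 47 μM to 0.79 nM, and CellTiter-Glo One luminescence was normalised per plate to DMSO and cell-free wells before four-parameter log-logistic fitting on log10 dose. Area under the curve was integrated with the trapezoidal rule, scaling curves above full viability and removing curves that failed quality control.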

SEM cells [2] = assay: as above
In short: as §1

NOMO1 [3] = assay: as above
In short: as §1

SEM cells [4] = assay: cell viability relative to DMSO control; higher = less cytotoxic
In short: (§2)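 Leukemia cells (NOMO1 or SEM, 500 cells/well; P12-Ichikawa, 1000 cells/well) were seeded in 5 μl in 1536-well plates after at least four passages of adaptation to each medium. They received library compounds in DMSO by pin dosing, 11 threefold points from 47 μM to 0.79 nM. Luminescence with CellTiter-Glo One was read after 48 h at 37°C. Viability is stated per plate relative to DMSO wells, with cell-free wells as background.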

P12-Ichikawa [5] = assay: as above
In short: as §2

NOMO1 [6] = assay: as above
In short: as §2

O=C(Nc1ccccc1Br)N[C@@H]1CCN(c2ccc(C(F)(F)F)cn2)C1
AUC of viability dose-response curve
Conditions	NOMO1 [3]	P12-Ichikawa [1]	SEM cells [2]
HPLM + 10% dialyzed FBS	448	448	469
RPMI 5 mM glucose + 10% FBS	432	443	461
RPMI 5 mM glucose + 10% dialyzed FBS	447	454	469

cell viability [%], SEM cells [4]
Conditions	HPLM + 10% dialyzed FBS	RPMI 5 mM glucose + 10% FBS
0.000781 µM	119	117
0.00234 µM	121	94.6
0.00702 µM	136	107
0.0211 µM	131	122
0.0632 µM	127	113
0.19 µM	121	112
0.569 µM	126	105
1.71 µM	133	112
5.12 µM	122	98.9
15.4 µM	120	106
46.1 µM	117	85

Cn1cc(CNCC2CCN(c3ncc(C(=O)NO)cn3)CC2)c2ccccc21
AUC of viability dose-response curve
Conditions	NOMO1 [3]	P12-Ichikawa [1]	SEM cells [2]
HPLM + 10% dialyzed FBS	268	262	231
RPMI 5 mM glucose + 10% FBS	276	255	238
RPMI 5 mM glucose + 10% dialyzed FBS	271	273	239

C[C@@H]\1COC(=N1)\NC2=CC3=C(C=C2)N=CN=C3NC4=CC(=C(OCC5=NC=CS5)C=C4)Cl
AUC of viability dose-response curve
Conditions	NOMO1 [3]	P12-Ichikawa [1]	SEM cells [2]
HPLM + 10% dialyzed FBS	454	455	461
RPMI 5 mM glucose + 10% FBS	447	447	457
RPMI 5 mM glucose + 10% dialyzed FBS	463	449	457

NC1(C(=O)N[C@@H](CCO)c2ccc(Cl)cc2)CCN(c2ncnc3[nH]ccc23)CC1
AUC of viability dose-response curve
Conditions	NOMO1 [3]	P12-Ichikawa [1]	SEM cells [2]
HPLM + 10% dialyzed FBS	409	391	375
RPMI 5 mM glucose + 10% FBS	413	362	378
RPMI 5 mM glucose + 10% dialyzed FBS	423	378	356

COc1nccc(-c2c(-c3ccc(F)cc3)ncn2C2CCNCC2)n1
AUC of viability dose-response curve
Conditions	HPLM + 10% dialyzed FBS	RPMI 5 mM glucose + 10% FBS	RPMI 5 mM glucose + 10% dialyzed FBS
P12-Ichikawa [1]	452	455	453
SEM cells [2]	460	375	454

cell viability [%]
Conditions	NOMO1 [6]	P12-Ichikawa [5]	SEM cells [4]
HPLM + 10% dialyzed FBS, 0.000781 µM	95.7	99.1	98.2
HPLM + 10% dialyzed FBS, 0.00234 µM	121	108	114
HPLM + 10% dialyzed FBS, 0.00702 µM	124	113	120
HPLM + 10% dialyzed FBS, 0.0211 µM	127	110	107
HPLM + 10% dialyzed FBS, 0.0632 µM	120	113	120
HPLM + 10% dialyzed FBS, 0.19 µM	121	100	114
HPLM + 10% dialyzed FBS, 0.569 µM	119	96	113
HPLM + 10% dialyzed FBS, 1.71 µM	94.4	100	110
HPLM + 10% dialyzed FBS, 5.12 µM	107	104	102
HPLM + 10% dialyzed FBS, 15.4 µM	78.3	90.6	98.7
HPLM + 10% dialyzed FBS, 46.1 µM	49.4	80.2	81.7
RPMI 5 mM glucose + 10% FBS, 0.000781 µM	45.8	109	–
RPMI 5 mM glucose + 10% FBS, 0.00234 µM	120	112	–
RPMI 5 mM glucose + 10% FBS, 0.00702 µM	115	106	–
RPMI 5 mM glucose + 10% FBS, 0.0211 µM	101	120	–
RPMI 5 mM glucose + 10% FBS, 0.0632 µM	113	117	–
RPMI 5 mM glucose + 10% FBS, 0.19 µM	107	106	–
RPMI 5 mM glucose + 10% FBS, 0.569 µM	100	108	–
RPMI 5 mM glucose + 10% FBS, 1.71 µM	112	98.2	–
RPMI 5 mM glucose + 10% FBS, 5.12 µM	96.7	109	–
RPMI 5 mM glucose + 10% FBS, 15.4 µM	97.6	104	–
RPMI 5 mM glucose + 10% FBS, 46.1 µM	74	90.5	–
RPMI 5 mM glucose + 10% dialyzed FBS, 0.000781 µM	44.9	98.2	69.4
RPMI 5 mM glucose + 10% dialyzed FBS, 0.00234 µM	119	111	117
RPMI 5 mM glucose + 10% dialyzed FBS, 0.00702 µM	97.3	117	144
RPMI 5 mM glucose + 10% dialyzed FBS, 0.0211 µM	110	111	113
RPMI 5 mM glucose + 10% dialyzed FBS, 0.0632 µM	106	119	116
RPMI 5 mM glucose + 10% dialyzed FBS, 0.19 µM	104	110	114
RPMI 5 mM glucose + 10% dialyzed FBS, 0.569 µM	108	106	104
RPMI 5 mM glucose + 10% dialyzed FBS, 1.71 µM	104	98.9	126
RPMI 5 mM glucose + 10% dialyzed FBS, 5.12 µM	101	104	110
RPMI 5 mM glucose + 10% dialyzed FBS, 15.4 µM	99.1	94.7	95.8
RPMI 5 mM glucose + 10% dialyzed FBS, 46.1 µM	68	80.7	79.5

CC(C)c1cnn2c(NCc3ccccc3)cc(N[C@@H](CO)[C@H](O)CO)nc12
AUC of viability dose-response curve
Conditions	NOMO1 [3]	P12-Ichikawa [1]	SEM cells [2]
HPLM + 10% dialyzed FBS	297	327	299
RPMI 5 mM glucose + 10% FBS	303	313	290
RPMI 5 mM glucose + 10% dialyzed FBS	302	320	299

cell viability [%]
Conditions	P12-Ichikawa [5]	SEM cells [4]
HPLM + 10% dialyzed FBS, 0.000781 µM	121	117
HPLM + 10% dialyzed FBS, 0.00234 µM	128	140
HPLM + 10% dialyzed FBS, 0.00702 µM	124	120
HPLM + 10% dialyzed FBS, 0.0211 µM	127	119
HPLM + 10% dialyzed FBS, 0.0632 µM	129	142
HPLM + 10% dialyzed FBS, 0.19 µM	127	136
HPLM + 10% dialyzed FBS, 0.569 µM	120	79.9
HPLM + 10% dialyzed FBS, 1.71 µM	35.4	9.33
HPLM + 10% dialyzed FBS, 5.12 µM	8.12	5.66
HPLM + 10% dialyzed FBS, 15.4 µM	5.35	4.28
HPLM + 10% dialyzed FBS, 46.1 µM	4.01	1.69
RPMI 5 mM glucose + 10% dialyzed FBS, 0.000781 µM	–	121
RPMI 5 mM glucose + 10% dialyzed FBS, 0.00234 µM	–	134
RPMI 5 mM glucose + 10% dialyzed FBS, 0.00702 µM	–	121
RPMI 5 mM glucose + 10% dialyzed FBS, 0.0211 µM	–	123
RPMI 5 mM glucose + 10% dialyzed FBS, 0.0632 µM	–	120
RPMI 5 mM glucose + 10% dialyzed FBS, 0.19 µM	–	121
RPMI 5 mM glucose + 10% dialyzed FBS, 0.569 µM	–	80.7
RPMI 5 mM glucose + 10% dialyzed FBS, 1.71 µM	–	8.71
RPMI 5 mM glucose + 10% dialyzed FBS, 5.12 µM	–	5.19
RPMI 5 mM glucose + 10% dialyzed FBS, 15.4 µM	–	3.66
RPMI 5 mM glucose + 10% dialyzed FBS, 46.1 µM	–	1.44
